The values below come from publication PMC7822874, “Chemoprotective antimalarials identified through quantitative high-throughput screening of Plasmodium blood and liver stage parasites” (Scientific Reports, 2021).

SMILES strings stand for the structures. Where two headings read alike, the source gives them in different places.

Data set [1] has as its system Plasmodium falciparum Dd2 asexual blood stage parasites. The experiment in a line: microbe, parasite or virus in culture. Also on record: species or system Plasmodium falciparum Dd2 in human erythrocytes; single determination (one 11-point concentration-response curve). As to conditions: Plasmodium falciparum, DD2, Erythrocyte, 72 h.
Another data set has as its system HepG2. Particulars: human, hepg2 cells, 48 h.
The nature of another data set: in vitro. Particulars: human, hepg2 cells.

As for `O=C(Nc1nnc(SCc2ccc(F)cc2)s1)c1ccccn1` [MLS001003501-01], in data set [1] (read-out: AC50), the AC50 is 8.41 µM. Further, the “Log AC50 (M)” value with HepG2 is reported as -4.9643 M. The compound further registered a CC50 at 48 h in “in vitro” of 10.9 µM.
For `Cc1ccc2nc(C)cc(Nc3ccc([N+](=O)[O-])cc3)c2c1` [MLS000710716-01], in that order: 6.68 µM, -4.3643 M and 43.2 µM.
Taken in the same sequence, the figures for `COc1ccc(NC(=O)OC[C@H]2C[C@@H]3CCN2C[C@@H]3c2cc(C3CCCC3)nc(-c3ccncc3)n2)cc1` [NCGC00421346-01] were 4.22 µM, -4.3643 M and 43.2 µM.
For `CCN1C(=O)C2(CCN([S+](=O)([O-])c3ccc(Cl)cc3C)CC2)c2ccccc21` [NCGC00435870-01], in that order: 5.31 µM, -4.4643 M and 34.3 µM.
On to `CCOC(=O)CCCOc1cccn2c(=O)c(-c3cc(C)n(-c4ccc(Cl)cc4)n3)c(C)nc12` [NCGC00473250-01], for which, in data set [1] (read-out: AC50), the AC50 stood at 10.6 µM. In addition, in the data set with HepG2, the “Log AC50 (M)” value is reported as -4.8143 M. Further, the CC50 at 48 h in the data set “in vitro” was 15.3 µM.
`COc1cc2c(Nc3ccc(Br)cc3F)ncnc2cc1OCC1CCN(C)CC1` [NCGC00167513-01]: the AC50 in data set [1] (read-out: AC50) is 5.96 µM. In the data set with HepG2, the “Log AC50 (M)” value is -4.5643 M. The CC50 at 48 h in “in vitro” was 27.3 µM.
`O=C(Nc1ccc(Nc2ccncc2)cc1)c1ccc(Nc2ccnc3ccc([N+](=O)[O-])cc23)cc1[N+](=O)[O-]` [MLS000756458-01] gave an AC50 in data set [1] of 1.33 µM. Besides, the “Log AC50 (M)” value with HepG2 is -4.5643 M. This compound came in with a CC50 at 48 h in the data set “in vitro” of 27.3 µM.
As for `O=C(Nc1ccc([N+](=O)[O-])cc1)Nc1ccc(OC(F)F)c(Cl)c1` [MLS000581434-01], the concentration at half-maximal activity (AC50) in data set [1] (read-out: AC50) was 2.66 µM. Further, in the data set on HepG2, the “Log AC50 (M)” value is listed as -4.5143 M. In the data set “in vitro”, this compound registered a CC50 at 48 h of 30.6 µM.
For `CCC(CC)c1cc([C@H]2CN3CC[C@H]2C[C@@H]3COC(=O)Nc2ccc(C(C)(C)C)cc2)nc(-c2ccncc2)n1` [NCGC00394559-01], in that order: 2.11 µM, -4.3643 M and 43.2 µM.
For the compound `CCC1CCCCN1CCCNC(=O)c1ccc2c(c1)sc1nc(-c3ccc(F)cc3)cn12` (stereo not drawn) [NCGC00121679-01], in data set [1] (read-out: AC50), the AC50 worked out at 1.5 µM. In addition, in the data set on HepG2, the “Log AC50 (M)” value is listed as -4.4643 M. Moreover, the midpoint of cytotoxicity in the data set “in vitro”, the CC50 at 48 h, lay at 34.3 µM.
With `Cc1cc(NC2CCCCC2)nc(NCc2ccccc2)n1` [MLS000555549-01], the AC50 in data set [1] (read-out: AC50) stood at 16.8 µM. Also, in the data set with HepG2, the “Log AC50 (M)” value is -4.4643 M. Also, in the data set “in vitro”, the CC50 at 48 h amounted to 34.3 µM.
For `CC(C)(C)c1ccc(NC(=O)OC[C@H]2C[C@@H]3CCN2C[C@@H]3c2cc(C3CCCC3)nc(-c3ccncc3)n2)cc1` [NCGC00391636-01], in that order: 2.11 µM, -4.3643 M and 43.2 µM.
Taken in the same sequence, the figures for `Cc1cc(N2CCN(C)CC2)nc2ccc(NC(=O)Nc3cccc(Cl)c3)cc12` [NCGC00126479-01] were 4.22 µM, -4.3643 M and 43.2 µM.
For `O=C(Nc1ccc(C(F)(F)F)cc1)N1CCN(c2ccnc3cc(Cl)ccc23)CC1` [MLS000830170-01], in that order: 5.31 µM, -4.6143 M and 24.3 µM.
For `CCOc1ccc(C2=C(C(C)=O)Sc3nnc(C)n3N2C(C)=O)cc1` [NCGC00137200-01], in data set [1] (read-out: AC50), the concentration at half-maximal activity (AC50) is 5.31 µM. For the same compound, in the data set with HepG2, the “Log AC50 (M)” value is recorded as -4.3643 M. For the same compound, the midpoint of cytotoxicity in “in vitro”, the CC50 at 48 h, lay at 43.2 µM.
Consider `O=C1NCN(c2ccccc2)C12CCN(CCCC(c1ccc(F)cc1)c1ccc(F)cc1)CC2` [NCGC00015424-04], for which the AC50 in data set [1] (read-out: AC50) stood at 5.31 µM. Also, the “Log AC50 (M)” value in the data set on HepG2 is on record as -4.3643 M. Also, it took 43.2 µM to reach half-maximal cytotoxicity in the data set “in vitro” (CC50 at 48 h).
Taken in the same sequence, the figures for `COc1ccc2nc(C)cc(NCc3cccc(C(F)(F)F)c3)c2c1` [MLS001174340-01] were 2.11 µM, -4.5143 M and 30.6 µM.
For `COc1ccc(-[n+]2c(-c3ccc(Br)cc3)cn3c2CCc2ccccc2-3)cc1.[Br-]` [MLS000391920-01], in that order: 4.22 µM, -4.3643 M and 43.2 µM.
Taken in the same sequence, the figures for `CC(C)C[C@@H]1N[C@H](C(=O)NC(C)C)Cc2cn(Cc3ccncc3)c3cccc1c23` [NCGC00395386-01] were 17.2 µM, -4.3528 M and 44.4 µM.
Regarding `CC(C)(C)OC(=O)N1CCC(c2c(C(=O)NCCN3CCC(Cc4ccccc4)CC3)cnn2-c2ccc(F)cc2)CC1` [NCGC00126694-01], the AC50 in data set [1] (read-out: AC50) turned out to be 5.31 µM. The “Log AC50 (M)” value in the data set on HepG2 was -4.3643 M. Further, the midpoint of cytotoxicity in the data set “in vitro”, the CC50 at 48 h, lay at 43.2 µM.
As to `COC(=O)C1=C(C)NC(C)=C(C(=O)OCCCN2CCC(c3ccccc3)(c3ccccc3)CC2)C1c1cccc([N+](=O)[O-])c1.Cl` (stereo not drawn) [NCGC00163135-01], in data set [1], half-maximal activity (AC50) was put at 2.99 µM. For the same compound, in the data set on HepG2, the “Log AC50 (M)” value was -4.3643 M. Further, half-maximal cytotoxicity in the data set “in vitro” (CC50 at 48 h) was put at 43.2 µM.
Consider `CCN(CC)CCCNC(=O)c1ccc2c(c1)N(Cc1c(F)cccc1Cl)C(=O)c1ccccc1S2` [NCGC00108146-01], for which, in data set [1] (read-out: AC50), the AC50 was found to be 0.944 µM. For the same compound, the “Log AC50 (M)” value in the data set on HepG2 was -4.4143 M. Further, the CC50 at 48 h in the data set “in vitro” was 38.5 µM.
Taken in the same sequence, the figures for `COc1cc(C2CC(=O)N(Cc3ccc(F)cc3)c3ccccc3S2)cc(OC)c1OC` (stereo not drawn) [NCGC00112401-01] were 2.11 µM, -4.5643 M and 27.3 µM.
For `CCCCN(CC)CCCNC(=O)c1ccc2c(c1)N(Cc1ccc(C)cc1)C(=O)c1ccccc1S2` [NCGC00139764-01], the AC50 in data set [1] (read-out: AC50) amounted to 1.88 µM. Further, the “Log AC50 (M)” value in the data set on HepG2 is on record as -4.3643 M. Besides, in “in vitro”, the 50% cytotoxic concentration (CC50) at 48 h stood at 43.2 µM.
With `O=C(O)c1ccccc1.OC(CNCC1CCCO1)Cn1c2ccc(Cl)cc2c2cc(Cl)ccc21` (stereo not drawn) [MLS000525403-01], the AC50 in data set [1] (read-out: AC50) came to 1.19 µM. Moreover, the “Log AC50 (M)” value in the data set with HepG2 was -4.4143 M. Also, in “in vitro”, the CC50 at 48 h came to 38.5 µM.
Regarding `Cc1ccc(CNCc2cc3c(C(C)(C)C)nn(-c4ccccc4)c3[nH]c2=O)cc1` [MLS000067257-01], the AC50 in data set [1] (read-out: AC50) was found to be 0.266 µM. The “Log AC50 (M)” value in the data set on HepG2 is recorded as -4.3643 M. Also, half-maximal cytotoxicity in the data set “in vitro” (CC50 at 48 h) was put at 43.2 µM.
For `CCN(CC)CCNC(=O)c1ccc(NC(=O)c2cn(-c3ccc(F)cc3)nc2-c2cccc(OC)c2)cc1` [MLS001233779-01], in that order: 9.44 µM, -4.5143 M and 30.6 µM.
For `Cc1cc(NCc2ccccn2)n2nc(C)c(-c3ccccc3)c2n1` [MLS000559925-01], in that order: 13.3 µM, -5.9643 M and 1.09 µM.
Turning to `CCOc1ccccc1NC(=O)Nc1ccc2nc(N3CCN(C)CC3)cc(C)c2c1` [NCGC00126491-01], the AC50 in data set [1] (read-out: AC50) worked out at 1.33 µM. In addition, the “Log AC50 (M)” value in the data set with HepG2 was -4.3643 M. Further, the CC50 at 48 h in the data set “in vitro” is 43.2 µM.
For `COc1ccc(/C=N/Nc2nc(Nc3ccccc3)nc(N3CCCC3)n2)cc1[N+](=O)[O-]` [MLS000723644-01], in that order: 6.68 µM, -4.5643 M and 27.3 µM.
Take `Cc1ccc(Oc2c(C)[nH]c(-c3ccccc3)nc2=O)cc1` [MLS000851017-01]: the AC50 in data set [1] (read-out: AC50) amounted to 5.31 µM. Also, the “Log AC50 (M)” value in the data set on HepG2 is reported as -4.3643 M. The compound further showed a CC50 at 48 h in the data set “in vitro” of 43.2 µM.
